The source of these data is patent publication US20030129672A1, “Method for identifying metalloenzyme inhibitors” (priority 2001, published 2003).

pIC50, pKd: −log10 of the molar value. Read-outs that look alike come from different tables or passages of the source.

Format in all cases: biochemical
In assay [1] the target is MMP-13CD (Homo sapiens, UniProt P45452). As to the kind of experiment: Fluorigenic peptide-1 substrate based assay with and without acetohydroxamic acid, MMP-13CD. To be noted: for pIC50: MMP-13CD, FP1 substrate. How it is done:
50 mM HEPES buffer (pH 7.0)
2% DMSO (with or without inhibitor test compound)
Alternatively, an endpoint read can also be used to determine reaction velocity provided the initial fluorescence of the solution, as recorded before addition of enzyme, is subtracted from the final fluorescence of the reaction mixture. […] This determination was done for experiments done in the presence, and experiments done in the absence, of acetohydroxamic acid. Data were fit to the equation: […]

Assay [2] addresses T1, MMP-2 (Homo sapiens, UniProt P08253).
T1 sequence (P08253 110-660): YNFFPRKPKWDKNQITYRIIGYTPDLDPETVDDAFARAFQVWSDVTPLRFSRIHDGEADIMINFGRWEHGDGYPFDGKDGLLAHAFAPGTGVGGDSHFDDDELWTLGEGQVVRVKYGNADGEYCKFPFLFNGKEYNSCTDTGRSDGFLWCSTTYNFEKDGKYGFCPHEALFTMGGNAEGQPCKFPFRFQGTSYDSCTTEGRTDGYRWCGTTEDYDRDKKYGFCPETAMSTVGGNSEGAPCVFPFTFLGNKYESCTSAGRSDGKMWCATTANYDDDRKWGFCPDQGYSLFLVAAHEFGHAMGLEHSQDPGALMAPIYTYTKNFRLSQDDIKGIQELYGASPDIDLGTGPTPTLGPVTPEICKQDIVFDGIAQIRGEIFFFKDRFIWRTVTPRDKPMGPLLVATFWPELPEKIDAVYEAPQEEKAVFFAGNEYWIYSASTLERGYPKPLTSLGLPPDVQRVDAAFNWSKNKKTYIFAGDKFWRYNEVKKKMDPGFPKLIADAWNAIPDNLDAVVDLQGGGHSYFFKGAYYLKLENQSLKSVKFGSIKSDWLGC
Briefly: Fluorigenic peptide-1 substrate based assay with and without acetohydroxamic acid, MMP-2. To be noted: MMP 2FL, FP1 substrate.

The target in assay [3] is T1, MMP-2. As to the kind of experiment: Steady-state kinetics of the mechanism of inhibition of MMP-2 (FIG. 1). The conditions noted are these: 6 concentrations from 0 nanomolar to 600 nanomolar, 1/V0 versus 1/[S].
From the text: FIG. 1 is a graph that plots 1 over the initial velocity VO, which is the initial rate of product formation in a steady state kinetics assay, on the Y-axis versus 1 over concentration of substrate [S] used in the assay on the X-axis for inhibition of MMP-2 with N-[(3-phenylisoxazol-5-ylmethyl)-aminothiocarbonyl]-benzamide at 6 concentrations of from 0 nanomolar to 600 nanomolar.
In FIG. 1, 1 over the initial velocity VO, which is the initial rate of product formation in a steady state kinetics assay, is plotted on the Y-axis versus 1 over concentration of substrate [S] used in the assay on the X-axis for inhibition of MMP-2 with N-[(3-phenylisoxazol-5-ylmethyl)-aminothiocarbonyl]-benzamide at 6 concentrations of from 0 nanomolar to 600 nanomolar.
In assay [4] the target is MMP-9 (Homo sapiens, UniProt P14780). As to the kind of experiment: Fluorigenic peptide-1 substrate based assay with and without acetohydroxamic acid, MMP-9. The conditions noted are these: MMP 9FL, FP1 substrate.
MMP-9, sequence (P14780 94-707, species assumed): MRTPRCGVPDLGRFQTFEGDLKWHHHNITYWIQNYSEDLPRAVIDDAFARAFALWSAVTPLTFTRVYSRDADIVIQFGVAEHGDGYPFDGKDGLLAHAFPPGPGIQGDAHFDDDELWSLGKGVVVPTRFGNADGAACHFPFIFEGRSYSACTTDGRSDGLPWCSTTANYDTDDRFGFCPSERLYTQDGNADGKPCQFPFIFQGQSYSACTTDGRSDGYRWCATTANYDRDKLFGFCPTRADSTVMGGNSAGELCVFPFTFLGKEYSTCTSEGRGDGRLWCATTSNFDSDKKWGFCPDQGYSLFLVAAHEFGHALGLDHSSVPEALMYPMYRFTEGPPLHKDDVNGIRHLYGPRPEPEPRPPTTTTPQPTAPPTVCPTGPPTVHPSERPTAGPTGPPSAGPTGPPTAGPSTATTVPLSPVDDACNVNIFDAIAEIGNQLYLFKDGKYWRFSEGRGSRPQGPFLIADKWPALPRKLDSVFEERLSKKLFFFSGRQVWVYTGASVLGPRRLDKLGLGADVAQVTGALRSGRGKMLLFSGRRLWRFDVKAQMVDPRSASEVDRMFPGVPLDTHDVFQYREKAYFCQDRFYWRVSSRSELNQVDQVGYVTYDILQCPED
Where [5] appears, read: 0 mM acetohydroxamic acid, read-out: Without AcNHOH IC50.
[6] abbreviates: 15 mM acetohydroxamic acid (1 Kd), read-out: With AcNHOH IC50.
[7] abbreviates: about 1 Kd of acetohydroxamic acid, read-out: With AcNHOH IC50.
Where [8] appears, read: no acetohydroxamic acid, read-out: Without AcNHOH IC50.

Take `Nc1ccc(-c2ccc(S(N)(=O)=O)cc2)cc1` [Entry 1]: the pIC50 in assay [1] (setting [5]) is 4.47; in assay [1] (setting [6]) it was 4.80.

For the compound `NS(=O)(=O)c1ccc(-c2ccc([N+](=O)O)cc2)cc1` [Entry 2], the pIC50 in assay [1] (setting [5]) was 4.08; in assay [1] (setting [6]), 5.51.

As to `COc1ccc(NC(=O)Nc2ccc3nc(C)cc(N)c3c2)cc1` [Entry 3], the results for the pIC50 in assay [1] (setting [5]) and in assay [1] (setting [6]) were 3.90 and 4.15, respectively.

`Cc1cc(O)nc(SCc2ccc(Cl)cc2)n1` [Entry 4]: the pIC50 in assay [1] (setting [5]) was 4.19; in assay [1] (setting [6]), 5.33.

`Cc1c(-c2ccc(-n3ccnc3)cc2)[nH][nH]c1=O` [Entry 5]: the pIC50 in assay [1] (setting [5]) is 5.02; in assay [1] (setting [6]) it was 4.96.

Consider `CCOC(=O)/C=C/c1ccc(-n2ccnc2)cc1` [Entry 6], for which the pIC50 in assay [1] (setting [5]) is 4.77; in assay [1] (setting [6]) it was 4.85.

Turning to `COc1ccc(C(=O)NCc2cccnc2)cc1C(=O)NCc1cccnc1` [Entry 7], the values for the pIC50 in assay [1] (setting [5]) and in assay [1] (setting [6]) were 4.57 and 4.96, respectively.

`O=C(NC(=S)NCc1cc(-c2ccccc2)no1)c1ccccc1` [N-[(3-phenylisoxazol-5-ylmethyl)-aminothiocarbonyl]-benzamide]: the pIC50 is 7.05 in assay [2] (setting [7]), 6.05 in assay [2] (setting [8]), 5.92 in assay [4] (setting [7]) and 5.51 in assay [4] (setting [8]). Further, the “Mechanism of inhibition of MMP-2 by steady-state kinetics” value in assay [3] is given as “uncompetitive inhibitor”.

The compound `CC(=O)NO` [acetohydroxamic acid, reference compound] had a pKd in assay [1] of 1.82.
